Experiments:
[1] = tested on: capsular polysaccharide (cps) band of E. coli K12 total lipid extract; assay: Capsular polysaccharide band density on silver-stained gels; assay type: cell-based
Procedure: (§1) The assays were prepared by plating E. coli K12 onto an LB-agar plate and grown overnight (12–18 h)[60]. A colony forming unit was chosen to inoculate 10 mL of fresh LB media in a tightly capped 15 mL falcon tube and placed in an incubator (no agitation) at 37 °C for exactly 24 h to increase the number of viable cells for inoculation of the plate and thusly reproducibility in highly variable growth patterns. A 96-well plate was then filled with a variety of inhibitor concentrations taken from stock solutions made up in ultra-pure water allowing for one row to remain free of the inhibitor. Each inhibitor concentration was given 3-wells to ensure a triplicate of data is collected at once. With the same fresh media used to make the overnight culture, the overnight growths were added to the plate in a 1:1000 dilution (total volume 200 uL) and the plate sealed with clear adhesive plastic sealant. One row has been designated for uncultured media to be used for pre-blanking measurements and to ensure that the media isn’t growing spontaneously.
As previously established, lipid extraction occurs through lysis of surface polysaccharides with a lysis buffer containing 1% SDS, 20% glycerol, 100 mM Tris–HCl and 0.04% bromophenol blue at a pH 6.8[61]. The cellular concentrations from each well were determined using the last collected OD600 corrected using Eq. (8), centrifuged and resuspended in the correct volume of lysis buffer to obtain 4 × 10^8 cells/100 µL solution. Addition of Proteinase K at 1 mg/mL concentration was incubated for 1 h at 37 °C. These samples were then loaded onto a 15% separating, 6% stacking SDS–polyacrylamide gel (recipes received from https://www.bio-rad.com/) in a 19:1 acrylamide to bis-acrylamide ratio and run with a voltage gradient from 50–150 V. The gels were then stained using the protocol described previously with no modifications[62] and imaged using a scanner.
Relative LPS band density was determined using analysis methods provided by ImageJ software. The band pixel density were analyzed relative to a purified sample of heptosylated O-deacylated Lipid A at 100 nM. The plot was generated of relative band density vs. concentration of inhibitor[63].

[2] = tested on: E. coli K12; assay: Growth challenge assay, 96-well plate; assay type: cell-based; conditions: for Inflection point in cell viability: E. coli K12, growth rate, Fig. 9; for Effect on growth of E. coli K12: increasing concentrations, 18-h period
Procedure: as §1
An experimental protocol was created using the Softmax Pro® software for a Molecular Devices Spectramax M5 plate reader. The parameters have been selected such that it collects pre-blanked absorbance readings at 600 nm wavelengths every 30 min at 37 °C with shaking every 10 min at 400 s intervals for 18 h total. Absorbance values were corrected for path length using the lateral reading path correction (8) and are plotted overtime to establish a growth curve.8 l=4×V/π×d^2 l = path length from Beer’s law ( A=εlc ), V = volume (cm^3), d = diameter of well (cm).
Data from the growth assay were analyzed using MATLAB R2018A. The derivative of the curve was calculated and the maximum rate as determined by the derivative was reported as the growth rate for that condition.

[3] = target: T1, HepI R60A (Escherichia coli, UniProt P24173, R60A); assay: HepI inhibition, ADP/NADH coupled assay (R60A mutant); assay type: biochemical, E. coli K12; conditions: for ΔΔG (kcal/mol) Exp: Arg60Ala relative to WT; for ΔG (kcal/mol) Exp: Arg60Ala, from Ki; for kcat: HepI R60A in presence of inhibitor
T1 construct: made in house; host or cells: E. coli One Shot BL-21-AI (stated for HepI in general)
Procedure: (§2) As previously reported[11],[14],[15], an ADP/NADH coupled assay was used to monitor HepI activity by monitoring the absorbance change at 340 nm at 37 °C on a Cary Bio 100 UV–Vis Spectrometer. Under normal conditions, the assay buffer was composed of 50 mM HEPES, 50 mM KCl, 10 mM MgCl2, pH 7.5. The coupled enzyme reaction additionally contained 100 μM phosphoenolpyruvate, 100 μM NADH, 100 μM dithiothreitol (DTT) and 0.05 U/μL of both pyruvate kinase and lactate dehydrogenase. 100 μM ADPH was used when ODLA concentration was varied and 100 μM ODLA was used when ADPH was varied. Once a stable baseline was established (~ 5 min), the reaction was initiated by addition of HepI to a final concentration of 50 nM or 100 nM (for high and lower substrate concentrations respectively) and all reported reaction rates are after background subtraction. When running 12 samples at once, plastic cuvette stirs and a repeat pipettor was used to inject 200 μL enzyme. Inhibition of HepI was monitored using the same ADP/NADH coupled assay, all conditions of the assay were the same as previously described unless otherwise stated. Ki values for each of the compounds were determined by varying compound final concentration from 100 μm to 10 nm, and a final concentration of 10 μM ODLA. Competition assays against ADPH were done with excess ODLA (100 μM) and varying ADPH from 2–0.25 μM. Competition assays against ODLA were done with excess ADPH (100 μM) and varying ODLA from 2–0.25 μM. Reactions were started with addition of enzyme and inhibitor was varied from 30–0.01 μM. Kinetics were fit to Lineweaver-Burke (Eq. 1), competitive (Eq. 2), non-competitive (Eq. 3), mixed (Eq. 4), Dixon (Eq. 5), or Cornish-Bowden (Eq. 6) models. All fitting and plotting was done through MATLAB R2018A.1 1/V1/[S]=KM/Vmax[S]+1/Vmax 2 V[S]=Vmax[S]/KM1+[I]/Ki+[S] 3 V[S]=Vmax[S]/1+([I]/Ki)/KM+[S] 4 V[S]=Vmax[S]/KM(1+[I]/Ki)+[S](1+[I]/αKi) 5 1/V[I]=KM1+I/Ki+[S]1+I/αKi/Vmax[S] 6 [S]/V[I]=KM1+I/Ki+[S]1+I/αKi/Vmax

[4] = target: T2, HepI K64A (Escherichia coli, UniProt P24173, K64A); assay: HepI inhibition, ADP/NADH coupled assay (K64A mutant); assay type: biochemical, E. coli K12
T2 construct: made in house; host or cells: E. coli One Shot BL-21-AI (stated for HepI in general)
Procedure: as §2

[5] = target: T3, HepI R63A (Escherichia coli, UniProt P24173, R63A); assay: HepI inhibition, ADP/NADH coupled assay (R63A mutant); assay type: biochemical, E. coli K12
T3 construct: made in house; host or cells: E. coli One Shot BL-21-AI (stated for HepI in general)
Procedure: as §2

[6] = target: T4, HepI R61A (Escherichia coli, UniProt P24173, R61A); assay: HepI inhibition, ADP/NADH coupled assay (R61A mutant); assay type: biochemical, E. coli K12
T4 construct: made in house; host or cells: E. coli One Shot BL-21-AI (stated for HepI in general)
Procedure: as §2

T1 sequence (P24173 whole entry R60A): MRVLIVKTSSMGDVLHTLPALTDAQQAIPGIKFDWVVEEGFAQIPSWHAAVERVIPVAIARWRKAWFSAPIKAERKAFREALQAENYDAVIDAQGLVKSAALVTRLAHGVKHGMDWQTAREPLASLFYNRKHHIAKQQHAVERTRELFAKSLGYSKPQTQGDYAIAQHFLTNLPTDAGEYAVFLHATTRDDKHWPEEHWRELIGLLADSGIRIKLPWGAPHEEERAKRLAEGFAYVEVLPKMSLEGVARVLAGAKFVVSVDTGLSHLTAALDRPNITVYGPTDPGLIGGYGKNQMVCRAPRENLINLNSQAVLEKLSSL
T2 sequence (P24173 whole entry K64A): as the sequence (P24173 whole entry R60A) above, with A60R, K64A counted along it
T3 sequence (P24173 whole entry R63A): as the sequence (P24173 whole entry R60A) above, with A60R, R63A counted along it
T4 sequence (P24173 whole entry R61A): as the sequence (P24173 whole entry R60A) above, with A60R, R61A counted along it

SMILES: NC[C@H]1O[C@H](O[C@H]2[C@H](O)[C@@H](O[C@H]3O[C@H](CO)[C@@H](O)[C@H](N)[C@H]3O)[C@H](N)C[C@@H]2N)[C@H](N)C[C@@H]1O [Tobramycin]
- Relative pixel density from cps band ([1]; 4 ng/mL tobramycin, relative to 0 ng/mL = 1): 1.752
- Relative pixel density from cps band ([1]; 4.5 ng/mL tobramycin): 4.293
- Relative pixel density from cps band ([1]; 5 ng/mL tobramycin): 7.121
- Relative pixel density from cps band ([1]; 5.5 ng/mL tobramycin): 5.786
- Relative pixel density from cps band ([1]; 6 ng/mL tobramycin): 3.692
- Relative pixel density from cps band ([1]; 6.5 ng/mL tobramycin): 2.319
- Relative pixel density from cps band ([1]; 7 ng/mL tobramycin): 1.163
- Relative pixel density from cps band ([1]; 7.5 ng/mL tobramycin): 1.421
- Relative pixel density from cps band ([1]; 8 ng/mL tobramycin): 1.641
- Relative pixel density from cps band ([1]; 9 ng/mL tobramycin): 1.606
- Inflection point in cell viability [2]: around 6.5 ng/mL
- Effect on growth of E. coli K12 [2]: challenges the growth
- Ki [3]: 3.4 ± 0.631 µM
- ΔΔG (kcal/mol) Exp [3]: 0.7 ± 0.1 kcal/mol
- ΔG (kcal/mol) Exp [3]: -7.5 ± 0.1 kcal/mol
- kcat [3]: 0.111 ± 0.013 s⁻¹

SMILES: [H]/N=C(/N)N[C@H]1[C@H](O)[C@@H](O)[C@H](O[C@@H]2O[C@@H](C)[C@](O)(C=O)[C@H]2O[C@@H]2O[C@@H](CO)[C@H](O)[C@@H](O)[C@@H]2NC)[C@@H](N/C(N)=N\[H])[C@@H]1O [Streptomycin]
- Relative pixel density from cps band ([1]; 12.5 ng/mL streptomycin, relative to 0 ng/mL = 1): 1.019
- Relative pixel density from cps band ([1]; 15 ng/mL streptomycin): 1.115
- Relative pixel density from cps band ([1]; 17.5 ng/mL streptomycin): 1.105
- Relative pixel density from cps band ([1]; 20 ng/mL streptomycin): 1.323
- Relative pixel density from cps band ([1]; 22.5 ng/mL streptomycin): 1.458
- Relative pixel density from cps band ([1]; 25 ng/mL streptomycin): 1.335
- Relative pixel density from cps band ([1]; 27.5 ng/mL streptomycin): 1.687
- Relative pixel density from cps band ([1]; 30 ng/mL streptomycin): 1.477
- Relative pixel density from cps band ([1]; 32.5 ng/mL streptomycin): 1.070
- Relative pixel density from cps band ([1]; 35 ng/mL streptomycin): 0.654
- Inflection point in cell viability [2]: 25 ng/mL
- Effect on growth of E. coli K12 [2]: challenges the growth
- Ki [4]: 5.76 ± 0.485 µM
- kcat ([4]; HepI K64A in presence of inhibitor): 0.117 ± 0.009 s⁻¹
- Ki relative to WT ([4]; HepI K64A vs WT): increased the Ki values an order of magnitude
- ΔΔG (kcal/mol) Exp ([4]; Lys64Ala relative to WT): 1.3 ± 0.1 kcal/mol
- ΔG (kcal/mol) Exp ([4]; Lys64Ala, from Ki): -7.1 ± 0.1 kcal/mol
- Ki [5]: 6.66 ± 0.699 µM
- ΔΔG (kcal/mol) Exp ([5]; Arg63Ala relative to WT): 1.4 ± 0.1 kcal/mol
- ΔG (kcal/mol) Exp ([5]; Arg63Ala, from Ki): -7.1 ± 0.1 kcal/mol
- kcat ([5]; HepI R63A in presence of inhibitor): 0.198 ± 0.024 s⁻¹
- Ki relative to WT ([5]; HepI R63A vs WT): increased the Ki values an order of magnitude
- Ki [3]: 6.25 ± 5.43 µM
- ΔΔG (kcal/mol) Exp [3]: 1.4 ± 0.4 kcal/mol
- ΔG (kcal/mol) Exp [3]: -7.1 ± 0.4 kcal/mol
- kcat [3]: 0.149 ± 0.013 s⁻¹
- Ki relative to WT ([3]; HepI R60A vs WT): increased the Ki values an order of magnitude
- Ki [6]: 7.89 ± 3.59 µM
- ΔΔG (kcal/mol) Exp ([6]; Arg61Ala relative to WT): 1.5 ± 0.2 kcal/mol
- ΔG (kcal/mol) Exp ([6]; Arg61Ala, from Ki): -7.0 ± 0.2 kcal/mol
- kcat ([6]; HepI R61A in presence of inhibitor): 0.142 ± 0.031 s⁻¹
- Ki relative to WT ([6]; HepI R61A vs WT): increased the Ki values an order of magnitude

Reference: article PMC9068772, “Discovery of first-in-class nanomolar inhibitors of heptosyltransferase I reveals a new aminoglycoside target and potential alternative mechanism of action” (Scientific Reports, 2022)
